In ChEMBL document CHEMBL4725269, “Exploring the newer oxadiazoles as real inhibitors of human SIRT2 in hepatocellular cancer cells” (Bioorg Med Chem Lett, 2020):

Legend:
[1] = Antiproliferative activity against human HCCLM3 cells assessed as reduction in cell proliferation measured after 72 hrs by MTT assay; assay type: functional, cell-based; conditions: HCCLM3, 72 h
HepG2 [2] = test: Antiproliferative activity against human HepG2 cells assessed as reduction in cell proliferation measured after 72 hrs by MTT assay; assay type: functional, cell-based; conditions: HepG2, 72 h
L02 = test: Cytotoxicity against human L02 cells assessed as reduction in cell proliferation measured after 72 hrs by MTT assay; assay type: cell-based; conditions: L02, 72 h
HepG2 [3] = test: Cell cycle arrest in human HepG2 cells assessed as accumulation at subG1 phase at 30 uM measured after 72 hrs by FACS based flow cytometry analysis (reference value: 4 %); assay type: functional
HepG2 [4] = test: Reduction in SIRT2 expression in human HepG2 cells at 15 uM by Western blot analysis; assay type: functional, cell-based; conditions: time hrs 24-72, TDE = time-dependent effect
HepG2 [5] = test: Reduction in SIRT2 expression in human HepG2 cells measured after 72 hrs by Western blot analysis; assay type: functional, cell-based; conditions: dose microM 5-30, time 72.0 hrs
HepG2 [6] = test: Cell cycle arrest in human HepG2 cells assessed as accumulation at subG1 phase at 15 uM measured after 72 hrs by FACS based flow cytometry analysis (reference value: 3 %); assay type: functional
HepG2 [7] = test: Cell cycle arrest in human HepG2 cells assessed as accumulation at subG1 phase at 15 uM measured after 48 hrs by FACS based flow cytometry analysis (reference value: 3 %); assay type: functional
HepG2 [8] = test: Cell cycle arrest in human HepG2 cells assessed as accumulation at subG1 phase at 5 uM measured after 72 hrs by FACS based flow cytometry analysis (reference value: 4 %); assay type: functional
HepG2 [9] = test: Cell cycle arrest in human HepG2 cells assessed as accumulation at subG1 phase at 15 uM measured after 24 hrs by FACS based flow cytometry analysis (reference value: 3 %); assay type: functional
HepG2 [10] = test: Cell cycle arrest in human HepG2 cells assessed as accumulation at subG1 phase at 15 uM measured after 72 hrs by FACS based flow cytometry analysis (reference value: 4 %); assay type: functional

Row | IC50 (HepG2 [2]) [µM] | SMILES | IC50 [1] [µM] | IC50 (L02) [µM] | further results
1 | 86.4 | Cn1nc(-c2nnc(-c3ccc(O)cc3)o2)c2ccccc21 | > 100 | > 100 | 
2 | 24.5 | Cn1nc(-c2nnc(-c3cccc(Br)c3)o2)c2ccccc21 | > 100 | > 100 | 
3 | 42 | Cn1nc(-c2nnc(-c3ccc(Cl)cc3)o2)c2ccccc21 | > 100 | > 100 | 
4 | 37.5 | Cn1nc(-c2nnc(-c3ccccc3)o2)c2ccccc21 | 100 | 84.6 | 
5 | 3.9 | CC(=O)O[C@H]1C(=O)[C@@]2(C)[C@H]([C@H](OC(=O)c3ccccc3)[C@]3(O)C[C@H](OC(=O)[C@H](O)[C@@H](NC(=O)c4ccccc4)c4ccccc4)C(C)=C1C3(C)C)[C@]1(OC(C)=O)CO[C@@H]1C[C@@H]2O [PACLITAXEL] |  |  | 
6 | 40 | Cn1nc(-c2nnc(-c3ccc(Br)cc3)o2)c2ccccc21 | > 100 | > 100 | 
7 | 22.3 | Cn1nc(-c2nnc(-c3ccccc3Br)o2)c2ccccc21 | > 100 | 89 | 
8 | 21.4 | Cn1nc(-c2nnc(-c3cccc(Cl)c3)o2)c2ccccc21 | > 100 | > 100 | 
9 | 38.7 | Cc1ccc(-c2nnc(-c3nn(C)c4ccccc34)o2)cc1 | > 100 | > 100 | 
10 | 67.4 | Cc1ccc(C(=O)Nc2ccc(S(=O)(=O)O)c3cc(S(=O)(=O)O)cc(S(=O)(=O)O)c23)cc1NC(=O)c1cccc(NC(=O)Nc2cccc(C(=O)Nc3cc(C(=O)Nc4ccc(S(=O)(=O)O)c5cc(S(=O)(=O)O)cc(S(=O)(=O)O)c45)ccc3C)c2)c1 [SURAMIN] |  |  | 
11 | 19.5 | COc1ccc(-c2nnc(-c3nn(C)c4ccccc34)o2)cc1 | > 100 | > 100 | Activity (HepG2 [3]): 55%; inhibition (HepG2 [4]): Tde; inhibition (HepG2 [5]): Dose-dependent effect; Activity (HepG2 [6]): 55%; Activity (HepG2 [7]): 45%; Activity (HepG2 [8]): 10%; Activity (HepG2 [9]): 10%; Activity (HepG2 [10]): 41%
12 | 60 | Cc1cccc(-c2nnc(-c3nn(C)c4ccccc34)o2)c1 | > 100 | > 100 | 
13 | 45 | Cn1nc(-c2nnc(-c3ccccc3Cl)o2)c2ccccc21 | > 100 | > 100 | 
